Five compounds from patent US4321265A, “7α-Methoxycephalosporins” (Toyama Chemical Co., Ltd., priority 1977, dated 1982) can be followed below.

Data set [1] has as its target T1, Cephalosporinase (S. marcescens W-8) (Serratia marcescens, UniProt P18539).
T1 construct: native preparation, details not in excerpts
In words: Stability to β-lactamase, iodometry (Perret). Type of data set: biochemical. Particulars: S. marcescens W-8 cephalosporinase; CER = 100; 30° C., pH 7.0. How it is done:
(§1) The stability to β-lactamase was examined by iodometry at 30° C. by the method of Perret (Perret, C. J., "Iodometric assay of penicillinase", Nature, 174, 1012-1013 (1954)), except that a 0.1 M phosphate buffer solution (pH 7.0) was used in place of the 0.2 M phosphate buffer solution (pH 6.5). The stability of each compound was shown in Table 2 in terms of relative degree of hydrolysis, assuming the stability of Cephaloridin (CER) to cephalosporinase as 100 and the stability of Penicillin G (PCG) to penicillinase as 100.

Data set [2] deals with T2, Cephalosporinase (E. coli GN-5482) (Escherichia coli, UniProt P00811).
T2 construct: native preparation, details not in excerpts
T2 sequence (P00811 20-377): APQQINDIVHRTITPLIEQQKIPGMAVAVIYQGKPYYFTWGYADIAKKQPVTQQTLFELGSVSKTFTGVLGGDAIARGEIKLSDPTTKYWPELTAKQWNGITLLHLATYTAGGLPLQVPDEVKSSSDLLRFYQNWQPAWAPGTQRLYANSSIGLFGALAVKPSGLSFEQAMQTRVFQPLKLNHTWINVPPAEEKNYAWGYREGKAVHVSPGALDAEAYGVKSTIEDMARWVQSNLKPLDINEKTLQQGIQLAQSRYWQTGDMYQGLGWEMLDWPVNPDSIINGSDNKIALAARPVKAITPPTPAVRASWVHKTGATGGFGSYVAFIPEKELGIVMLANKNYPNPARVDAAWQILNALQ
In words: Stability to β-lactamase, iodometry (Perret). It counts as biochemical. The following applies: E. coli GN-5482 cephalosporinase; CER = 100; 30° C., pH 7.0. The procedure:
as §1

The test system of data set [3] is Penicillinase (E. coli TK-3). In words: Stability to β-lactamase, iodometry (Perret). Type of data set: biochemical. Particulars: E. coli TK-3 penicillinase; PCG = 100; 30° C., pH 7.0. The procedure:
as §1

Data set [4] relates to Penicillinase (P. aeruginosa GN-3379). In words: Stability to β-lactamase, iodometry (Perret). It counts as biochemical. The following applies: P. aeruginosa GN-3379 penicillinase; PCG = 100; 30° C., pH 7.0. How it is done:
as §1

Data set [5] concerns Penicillinase (K. pneumoniae Y-4). In words: Stability to β-lactamase, iodometry (Perret). The following applies: K. pneumoniae Y-4 penicillinase; PCG = 100; 30° C., pH 7.0. It counts as biochemical. How it is done: as §1
The target in data set [6] is T3, β-lactamase (cephalosporinase, S. marcescens W-8) (Serratia marcescens, UniProt P18539).
T3 construct: producing bacteria; endogenous in cells; host or cells: S. marcescens W-8
T3 sequence (P18539 22-376): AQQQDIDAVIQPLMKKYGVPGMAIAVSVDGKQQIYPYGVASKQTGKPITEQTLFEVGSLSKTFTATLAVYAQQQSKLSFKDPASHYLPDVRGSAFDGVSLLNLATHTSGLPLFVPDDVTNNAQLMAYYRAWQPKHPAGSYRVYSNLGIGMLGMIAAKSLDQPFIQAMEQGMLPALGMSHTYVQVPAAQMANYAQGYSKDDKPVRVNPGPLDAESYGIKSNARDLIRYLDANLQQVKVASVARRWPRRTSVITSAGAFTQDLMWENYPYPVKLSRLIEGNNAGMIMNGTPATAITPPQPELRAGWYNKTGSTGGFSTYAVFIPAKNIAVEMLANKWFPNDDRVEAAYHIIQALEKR
In words: Inhibitory dose to β-lactamase, iodometric method of Perret, Cefazolin as substrate. Type of data set: biochemical. The following applies: read-out: Inhibitory dose to β-lactamase (ID50) (converted).

The target of data set [7] is T4, β-lactamase (cephalosporinase, C. freundii GN-346) (Citrobacter freundii, UniProt P05193).
T4 construct: producing bacteria; endogenous in cells; host or cells: C. freundii GN-346
T4 sequence (P05193 21-381): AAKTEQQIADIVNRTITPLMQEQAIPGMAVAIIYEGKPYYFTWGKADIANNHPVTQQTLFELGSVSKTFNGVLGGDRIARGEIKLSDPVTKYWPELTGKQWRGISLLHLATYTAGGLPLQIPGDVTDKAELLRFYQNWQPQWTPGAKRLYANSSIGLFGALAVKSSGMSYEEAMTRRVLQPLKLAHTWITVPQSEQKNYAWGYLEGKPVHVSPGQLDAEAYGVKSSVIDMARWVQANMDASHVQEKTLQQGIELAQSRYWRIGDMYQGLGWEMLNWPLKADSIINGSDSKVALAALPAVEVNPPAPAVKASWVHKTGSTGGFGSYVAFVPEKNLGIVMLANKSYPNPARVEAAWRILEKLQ
The data set is described as above. It counts as biochemical. Particulars: read-out: Inhibitory dose to β-lactamase (ID50) (converted).

Data set [8] deals with S. marcescens W-35. In words: Infection-protective activity in mice. It counts as in vivo, ICR-strain mice (male). Particulars: subcutaneous, one hour after intraperitoneal inoculation; challenge dose 2.5 × 10^5 cells/mouse; ICR mice. The source says:
Four-week old ICR-strain mice (male) in groups, each group consisting of five mice, were inoculated intraperitoneally with a prescribed quantity of a pathogenic bacterium suspended in 5% mucin. After one hour from the inoculation, the mice were subcutaneously administered with the test preparation to determine the infection-protective activity. The figures in Table 4 represent the protective activity in terms of ED50.

The target of data set [9] is T5, β-lactamase (cephalosporinase, E. coli GN-5482) (Escherichia coli, UniProt P00811).
T5 construct: producing bacteria; endogenous in cells; host or cells: E. coli GN-5482
T5 sequence (P00811 20-377): as the sequence (P00811 20-377) above
In words: Inhibitory dose to β-lactamase, iodometric method of Perret, Cefazolin as substrate. It counts as biochemical.

The nature of data set [10]: Toxicity (LD50). Particulars: mouse, in vivo; ICR-strain mice; intravenous. The source says:
The 7α-methoxycephalosporins of this invention are low-toxic.

For data set [11], the system named is Ser. marcescens W-35. In words: Minimum inhibitory concentration (MIC), Heart Infusion agar. It counts as cell-based. The following applies: Serratia marcescens, W35, 20 h. The procedure: (§2) Antibacterial activities of the representative compounds (Ib) of the 7α-methoxycephalosporins according to this invention are shown in Table 1. [drawing 20]
The figures given in Table 1 represent the minimum inhibitory concentration (MIC in mcg/ml) of each compound, which was determined according to the method described in "Chemotherapy (Society of Chemotherapy, Japan), Vol. 16, 98-99 (1968)": A culture obtained by cultivating the test bacterium in a Heart Infusion broth (Eiken Kagaku Co.) was inoculated into a Heart Infusion agar medium (Eiken Kagaku Co.). After 20 hours of the incubation at 37° C., the growth of the bacterium was inspected to determine the minimum inhibitory concentration (MIC in mcg/ml). […]
(§3) (1) Minimum inhibitory concentration (MIC in mcg/ml).

Data set [12] relates to Ent. cloacae IID977. Described as above. Type of data set: cell-based. The following applies: Enterobacter cloacae, IID977, 20 h, read-out: minimum inhibitory concentration (MIC). How it is done:
as §2
(§4) The figures given in Table 1 represent the minimum inhibitory concentration (MIC in mcg/ml) of each compound, which was determined according to the method described in "Chemotherapy (Society of Chemotherapy, Japan), Vol. 16, 98-99 (1968)": A culture obtained by cultivating the test bacterium in a Heart Infusion broth (Eiken Kagaku Co.) was inoculated into a Heart Infusion agar medium (Eiken Kagaku Co.). After 20 hours of the incubation at 37° C., the growth of the bacterium was inspected to determine the minimum inhibitory concentration (MIC in mcg/ml). The inoculation rate of the bacterium was 10^4 cells/plate (10^6 cells/ml).
as §3

Data set [13] has as its system Klebsiella spp. Y-72. The data set is described as above. The following applies: Klebsiella, SPP.Y72, 20 h, read-out: minimum inhibitory concentration (MIC). It counts as cell-based. How it is done: as §2, §4, §3
Data set [14] relates to K. pneumoniae Y-50. The data set is described as above. Type of data set: cell-based. The following applies: Klebsiella pneumoniae, Y50, 20 h, read-out: minimum inhibitory concentration (MIC). How it is done: as §2, §4, §3
Data set [15] relates to Ps. aeruginosa S-68. The description is as above. Type of data set: cell-based. Particulars: Pseudomonas aeruginosa, S68, 20 h, read-out: minimum inhibitory concentration (MIC). How it is done:
as §2, §4, §3

For data set [16], the system named is Citrobacter N-7. Described as above. It counts as cell-based. The following applies: Citrobacter, N7, 20 h, read-out: minimum inhibitory concentration (MIC). How it is done:
as §2, §4, §3

Data set [17] relates to E. coli NIHJ. The data set is described as above. It counts as cell-based. The following applies: Escherichia coli, 20 h, read-out: minimum inhibitory concentration (MIC). The procedure: as §2, §4, §3
Data set [18] relates to S. aureus F-19 (Penicillinase-producing bacterium). The data set is described as above. Particulars: Staphylococcus aureus, 20 h, read-out: minimum inhibitory concentration (MIC). It counts as cell-based. How it is done:
as §2, §4, §3

Data set [19] relates to Ser. marcescens W-8. The description is as above. It counts as cell-based. Particulars: Serratia marcescens, W8, 20 h, read-out: minimum inhibitory concentration (MIC). The procedure: as §2, §4, §3
For data set [20], the system named is Ps. aeruginosa IFO-3445. Described as above. Type of data set: cell-based. Particulars: Pseudomonas aeruginosa, IFO3445, 20 h, read-out: minimum inhibitory concentration (MIC). How it is done: as §2, §4, §3
Data set [21] deals with Acinetobacter caloaceticus A-6. Described as above. Type of data set: cell-based. Particulars: Acinetobacter, A6, 20 h, read-out: minimum inhibitory concentration (MIC). The procedure: as §2, §4, §3
The test system of data set [22] is Prot. vulgaris GN-76. The description is as above. Type of data set: cell-based. The following applies: Proteus vulgaris, GN76, 20 h, read-out: minimum inhibitory concentration (MIC). How it is done: as §2, §4, §3
In data set [23] the test system is C. freundii GN-346 (Cephalosporinase-producing bacterium). Described as above. The following applies: Citrobacter freundii, GN346, 20 h, read-out: minimum inhibitory concentration (MIC). It counts as cell-based. How it is done:
as §2, §4, §3

Data set [24] deals with Ser. marcescens IID620. The description is as above. It counts as cell-based. The following applies: Serratia marcescens, IID620, 20 h, read-out: minimum inhibitory concentration (MIC). How it is done: as §2, §4, §3

≈ marks a conversion by molar mass, not a printed value. Read-outs that look alike come from different tables or passages of the source.

T1 sequence (P18539 22-376): as the sequence (P18539 22-376) above

On to `CC1(C)S[C@@H]2[C@H](NC(=O)Cc3ccccc3)C(=O)N2[C@H]1C(=O)O` [PC-G, Penicillin G], for which the “Stability to β-lactamase, relative degree of hydrolysis” value turned out to be 21 in data set [1]; 22 in [2]; 100 in data set [3]; 100 in data set [4]; 100 in [5].

Take `O=C(Cc1cccs1)N[C@@H]1C(=O)N2C(C(=O)[O-])=C(C[n+]3ccccc3)CS[C@H]12` [CER, Cephaloridin]: the “Stability to β-lactamase, relative degree of hydrolysis” value in [1] amounted to 100; in data set [2] it was 100; in data set [3], 115; in [4] it was 18; in data set [5] it was 41.

Broadly, the LD50 is the dose expected to kill half of the subjects tested. For `CCN1CCN(C(=O)NC(C(=O)N[C@]2(OC)C(=O)N3C(C(=O)O)=C(CSc4nnnn4C)CS[C@@H]32)c2cccs2)C(=O)C1=O` (some centres unmarked) [Example T-1414], the IC50 in [6] is 811 nM; in data set [7] it was 2550 nM; in data set [9], 1230 nM. In addition, the “Stability to β-lactamase, relative degree of hydrolysis” value was 0.02 in data set [1]; < 0.1 in [2]; < 0.003 in data set [3]; 0.03 in data set [4]; < 0.09 in [5]. For the same compound, the “ED50 (infection-protective activity)” value in data set [8] was found to be 0.84 mg/mouse. The LD50 in data set [10] was ≥ 5000 mg/kg. The MIC in data set [11] (S. marcescens W-35, inoculated bacteria quantity 10^6 cells/ml (Table 4), read-out: MIC) stood at 6.25 µg/mL (≈ 9.39 µM); in data set [11] (S. marcescens W-35, inoculated bacteria quantity 10^8 cells/ml (Table 4), read-out: MIC), 12.5 µg/mL (≈ 18.8 µM).

Consider `Cc1nnc(SCC2=C(C(=O)O)N3C(=O)[C@@H](NC(=O)Cn4cnnn4)[C@H]3SC2)s1` [CEZ, Cefazolin], for which the “Stability to β-lactamase, relative degree of hydrolysis” value is recorded as 94 in [1]; 130 in [2]; 21 in [3]; 2 in data set [4]; 4 in data set [5].

`CO[C@@]1(NC(=O)CSCC#N)C(=O)N2C(C(=O)O)=C(CSc3nnnn3C)CS[C@@H]21` [CS-1170, reference compound]: the MIC was ≥ 200 µg/mL in [12]; 12.5 µg/mL (≈ 26.5 µM) in [13]; 0.39 µg/mL (≈ 0.827 µM) in data set [14]; ≥ 200 µg/mL in [15]; 25 µg/mL (≈ 53 µM) in data set [16]; 0.39 µg/mL (≈ 0.827 µM) in data set [17]. Moreover, the MIC in data set [18] was 1.56 µg/mL (≈ 3.31 µM); in data set [19], ≥ 200 µg/mL; in [20], ≥ 200 µg/mL; in [21], 50 µg/mL (≈ 106 µM); in [22] it was 3.13 µg/mL (≈ 6.64 µM); in data set [23], ≥ 200 µg/mL. For the same compound, the MIC was 3.13 µg/mL (≈ 6.64 µM) in data set [24]; 100 µg/mL (≈ 212 µM) in [11] (S. marcescens W-35, inoculated bacteria quantity 10^6 cells/ml (Table 4)); 200 µg/mL (≈ 424 µM) in data set [11] (S. marcescens W-35, inoculated bacteria quantity 10^8 cells/ml (Table 4)); 100 µg/mL (≈ 212 µM) in data set [11] (read-out: minimum inhibitory concentration (MIC), Ser. marcescens W-35, 10^6 cells/ml, 20 hours, 37° C. (Table 1)). For the same compound, the “ED50 (infection-protective activity)” value in [8] stood at 15.1 mg/mouse.
